From paper PMC10411625, “Rationally designed stapled peptides allosterically inhibit PTBP1–RNA-binding” (Chemical Science, 2023)
Positions of bridges follow the written chain, without caps; N, C: chain ends. Non-standard residues stand in square brackets, D forms with d. Residues, ends and D or L forms follow the SMILES beside them. R8 = C=CCCCCCC[C@@](C)(N)C(=O)O; S5 = C=CCCC[C@](C)(N)C(=O)O

What was measured:
[1] = target: T1, PTBP1 RRM12 (Homo sapiens, UniProt P26599); assay: Competitive fluorescence polarization assay between RRM12 and RNA-2; assay type: binding; conditions: Fig. 2C, 5 nM FAM-RNA-2, protein at 50-70 % probe binding, FP buffer pH 8.0, 20 °C, 30 min, n.b. given for inactive peptides; for Ki: read-out: Ki, competitive FP assay between RRM12 and RNA-2
T1 construct: (P57-V265); MBP (from pMAL vector); His tag; made in house; host or cells: E. coli BL21 DE3 RIL
T1 sequence (P26599 57-265): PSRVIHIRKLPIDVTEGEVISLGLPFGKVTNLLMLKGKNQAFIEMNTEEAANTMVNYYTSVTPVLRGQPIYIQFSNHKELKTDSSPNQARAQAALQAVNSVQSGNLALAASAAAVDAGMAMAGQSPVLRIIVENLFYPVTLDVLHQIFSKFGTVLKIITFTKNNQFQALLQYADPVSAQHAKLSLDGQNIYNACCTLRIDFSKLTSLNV
Text: (§1) For the initial design we used the i, i + 4 strategy where two (S)-pentenyl alanines (S5) were introduced in positions with three other amino acids in between. We picked three different amino acid pairs to replace with the S5 amino acids based on their orientation as observed in the NMR structures (P-2, P-3 and P-4, Fig. 2B and C).[25] To prevent the staple from disturbing the interaction between the ligand and the protein we chose positions facing away from the binding site forming the pairs Ala145/Ala149, Gln148/Gln152, and Ala149/Ala153. The three peptides were synthesized on Rink amide resin and the linear peptides were treated with a Grubbs catalyst to connect the S5 residues. To avoid a mixture of E/Z-diastereomers we reduced the alkene in the linker of the staple using a solution phase hydrogenation protocol.[43] The linear equivalent P-1 was synthesized for comparison but had to be extended on the C-terminus with an arginine residue to improve its solubility. The C-terminus is away from the binding surface and this modification was therefore not expected to have an impact on the binding affinity. The peptides were tested in a competitive fluorescence polarization assay using the RRM12 construct and RNA-2 (Fig. 2C and S2 ^†). […] As the staple is expected to stabilize the α-helical conformation we used circular dichroism (CD) spectroscopy to evaluate the helicity of the peptides. […] It is possible that although P-4 was more helical than P-3, the replacement of Gln148 with the hydrophobic linker disturbed the interaction since the side chain amide potentially interacts with the RRM1 surface. […]
size exclusion chromatography (Superdex 75 16/60 or 26/60) with SEC buffer (50 mM Tris, 200 mM NaCl). Protein homogeneity was assessed by the size exclusion chromatogram and purity was checked by SDS-PAGE analysis to be >= 90%.
The gene encoding for SRSF1-RRM12 (1-195) was subcloned into pOPIN-His expression vector and expressed in E. coli BL21 (DE3). A pre-culture of transformed bacteria was made followed by expression in LB-Medium (100 µg/ml Ampicillin, 1 mM IPTG, 18 °C, 160 rpm overnight) after growing the culture at 37 °C, 160 rpm to an OD600 of 0.6. The harvested cells (5000 x g, 4 °C, 15 min) were resuspended in Buffer ASRSF1 (50 mM Na2HPO4 pH 8.0, 300 mM KCl, 50 mM L-Arg, 50 mM L-Gly, 1.5 mM MgCl2) supplemented with 1 mM PMSF followed by lysis through sonification. The protein was purified using a HisTrap HP 5 ml column (GE-Healthcare) using a gradient of Buffer BSRSF1 (50 mM Na2HPO4 pH 8.0, 300 mM KCl, 50 mM L-Arg, 50 mM L-Gly, 1.5 mM MgCl2, 500 mM Imidazole) followed by dialysis into wash buffer (50 mM Na2HPO4 pH 8.0, 300 mM KCl, 50 mM L-Arg, 50 mM L-Gly, 1.5 mM MgCl2, 40 mM Imidazole) and a second run of the affinity column. The protein containing fractions were afterwards dialyzed into wash buffer with tag-cleavage using His-tagged 3C protease. The cleaved construct was subsequently used for a third affinity column run collecting the unbound fraction which was dialyzed into storage buffer (20 mM Na2HPO4 pH 8.0, 150 mM KCl, 50 mM L-Arg, 50 mM L-Gly, 1.5 mM MgCl2, 0.2 mM EDTA, 1 mM TCEP).
Purification of hnRNP A2/B1
The MBP-tagged hnRNP A2/B1 construct (1-251) was expressed from a pOPIN-His-MBP vector in E. coli BL21 (DE3) RIPL cells. A pre-culture in TB (0.01% lactose, 2mM MgSO4, 100 µg/ml ampicillin, 50 µg/ml chloramphenicol) was used to inoculate the expression culture with a starting OD600 of 0.05 at 37 °C. Expression was autoinduced at 37 °C for 4 h followed by expression over night at 25 °C. Harvested cells (5000 x g, 15 min, 4 °C) were resuspended in Buffer AhnRNPA2/B1 (50 mM HEPES pH 8.0, 300 mM NACl, 20 mM Imidazole, 1 mM TCEP) supplemented with 1 mM PMSF) and lysed with a microfluidizer.
Immobilized metal affinity chromatography was performed using a HisTrap FF crude 5 ml column. The loaded protein was washed with wash buffer (50 mM HEPES pH 8.0, 300 mM NaCl, 30 mM Imidazole, […]

[2] = Helicity by circular dichroism spectroscopy; assay type: physicochemical; conditions: 50 µM peptide, 20 mM sodium phosphate pH 8.0, 10 mM NaF, 20 °C, triplicates, JASCO multivariate secondary structure analysis
Text: as §1
performed in FP bufferPTBP1. […]
serially diluted in the same buffer. […]
a final concentration of 10 nM probe. […]
the settings mentioned previously.
Fluorescence polarization assay with SRSF1
Fluorescence polarization was
Fluorescence polarization assay with hnRNPA2/B1
For the competitive assay 10 nM
Microscale thermophoresis […]
afterwards serially diluted into FP buffer.
The data was evaluated at […]
experiments were performed in duplicates.
Circular Dichroism Spectroscopy […]

SMILES: CC(=O)N[C@H](C(=O)N[C@@H](CCC(N)=O)C(=O)N[C@@]1(C)CCCC=CCCCC2(CCCC=CCCC[C@](C)(C(=O)N[C@H](C(=O)N[C@@H](CC(N)=O)C(N)=O)C(C)C)NC(=O)[C@H](CCC(N)=O)NC(=O)[C@H](CC(C)C)NC(=O)[C@H](C)NC2=O)NC(=O)[C@H](CCC(N)=O)NC(=O)[C@H](C)NC(=O)[C@H](CCCNC(=N)N)NC1=O)C(C)C (stereo partly drawn) [Peptide P-10]
- Ki [1]: 22.4 ± 4.5 µM

SMILES: CC(=O)N[C@@H](CC(N)=O)C(=O)N[C@@H](CCC(N)=O)C(=O)N[C@@H](C)C(=O)N[C@@H](CCCNC(=N)N)C(=O)N[C@@H](C)C(=O)N[C@@]1(C)CCCCCCCC[C@@](C)(C(=O)N[C@@H](C)C(=O)N[C@H](C(=O)N[C@@H](CC(N)=O)C(N)=O)C(C)C)NC(=O)[C@H](CC(C)C)NC(=O)[C@H](C)NC(=O)[C@H](C)NC1=O [Peptide P-4]
- Helicity by CD spectroscopy [2]: 77.3%
- Ki [1]: 275 µM

SMILES: CC(=O)N[C@@H](CC(N)=O)C(=O)N[C@@H](CCC(N)=O)C(=O)N[C@@H](C)C(=O)N[C@@H](CCCNC(=N)N)C(=O)N[C@@H](C)C(=O)N[C@@H](CCC(N)=O)C(=O)N[C@@]1(C)CCCCCCCC[C@@](C)(C(=O)N[C@H](C(=O)N[C@@H](CC(N)=O)C(N)=O)C(C)C)NC(=O)[C@H](CCC(N)=O)NC(=O)[C@H](CC(C)C)NC(=O)[C@H](C)NC1=O [Peptide P-3]
- Helicity by CD spectroscopy [2]: 57.8%
- Ki [1]: 156 µM

SMILES: CC(=O)N[C@@H](CC(N)=O)C(=O)N[C@@H](CCC(N)=O)C(=O)N[C@@]1(C)CCCC=CCCCC2(CCCC=CCCC[C@](C)(C(=O)N[C@H](C(=O)N[C@@H](CC(N)=O)C(N)=O)C(C)C)NC(=O)[C@H](CCC(N)=O)NC(=O)[C@H](CC(C)C)NC(=O)[C@H](C)NC2=O)NC(=O)[C@H](CCC(N)=O)NC(=O)[C@H](C)NC(=O)[C@H](CCNC(=N)N)NC1=O (stereo partly drawn) [Peptide P-8]
- Ki, competitive FP assay between RRM12 and RNA-2 [1]: n.b.

SMILES: CC(=O)N[C@@H](CC(N)=O)C(=O)N[C@@H](CCC(N)=O)C(=O)N[C@@]1(C)CCCC=CCCCC2(CCCC=CCCC[C@](C)(C(=O)N[C@H](C(=O)N[C@@H](CC(=O)O)C(N)=O)C(C)C)NC(=O)[C@H](CCC(N)=O)NC(=O)[C@H](CC(C)C)NC(=O)[C@H](C)NC2=O)NC(=O)[C@H](CCC(N)=O)NC(=O)[C@H](C)NC(=O)[C@H](CCCNC(=N)N)NC1=O (stereo partly drawn) [Peptide P-7]
- Ki, competitive FP assay between RRM12 and RNA-2 [1]: n.b.

SMILES: CC(=O)N[C@@H](CC(N)=O)C(=O)N[C@@H](CCC(N)=O)C(=O)N[C@@]1(C)CCCC=CCCCC2(CCCC=CCCC[C@](C)(C(=O)N[C@H](C(=O)N[C@@H](CC(N)=O)C(N)=O)C(C)C)NC(=O)[C@H](CCC(N)=O)NC(=O)[C@H](CC(N)=O)NC(=O)[C@H](C)NC2=O)NC(=O)[C@H](CCC(N)=O)NC(=O)[C@H](C)NC(=O)[C@H](CCCNC(=N)N)NC1=O (stereo partly drawn) [Peptide P-9]
- Ki, competitive FP assay between RRM12 and RNA-2 [1]: n.b.

SMILES: CC(=O)N[C@@H](CC(N)=O)C(=O)N[C@@H](CCC(N)=O)C(=O)N[C@@]1(C)CCCC=CCCCCCC[C@](C)(C(=O)N[C@@H](C)C(=O)N[C@H](C(=O)N[C@@H](CC(N)=O)C(N)=O)C(C)C)NC(=O)[C@H](CC(C)C)NC(=O)[C@H](C)NC(=O)[C@H](C)NC(=O)[C@H](CCC(N)=O)NC(=O)[C@H](C)NC(=O)[C@H](CCCNC(=N)N)NC1=O [Peptide P-5] (Ac-NQ[S5]RAQAAL[R8]AVN-NH2; staple 3-10)
- Ki [1]: 24.9 µM
